# Laboratory results as given in ChEMBL document CHEMBL3046517, “Synthesis and antimicrobial study of fluoroquinolone-based 4-thiazolidinones” (2010).
# How the values were obtained:
# Type in all cases: functional
# [1] = test system: Staphylococcus aureus; experiment: Antibacterial activity against Staphylococcus aureus by broth dilution method
# [2] = test system: Escherichia coli; experiment: Antibacterial activity against Escherichia coli by broth dilution method
# [3] = test system: Streptococcus pyogenes; experiment: Antibacterial activity against Streptococcus pyogenes by broth dilution method
# [4] = test system: Pseudomonas aeruginosa; experiment: Antibacterial activity against Pseudomonas aeruginosa by broth dilution method
# [5] = test system: Aspergillus niger; experiment: Antifungal activity against Aspergillus niger by broth dilution method
# [6] = test system: Candida albicans; experiment: Antifungal activity against Candida albicans by broth dilution method
# [7] = test system: Aspergillus clavatus; experiment: Antifungal activity against Aspergillus clavatus by broth dilution method
Compound,MIC [1] [µg/mL],MIC [2] [µg/mL],MIC [3] [µg/mL],MIC [4] [µg/mL],MIC [5] [µg/mL],MIC [6] [µg/mL],MIC [7] [µg/mL]
O=C(O)c1cn(C2CC2)c2cc(N3CCNCC3)c(F)cc2c1=O [CIPROFLOXACIN],50,25,50,,,,
COc1ccc(N2CCN(c3cc4c(cc3F)c(=O)c(C(=O)NN3C(=O)CSC3c3ccccc3Cl)cn4C3CC3)CC2)cc1 (configuration not stated),500,1000,100,500,> 1000,1000,1000
NNC(=O)c1cn(C2CC2)c2cc(Cl)c(F)cc2c1=O,500,500,500,500,500,200,500
COC1=CC(=O)C[C@@H](C)[C@]12Oc1c(Cl)c(OC)cc(OC)c1C2=O [GRISEOFULVIN],,,,,100,500,100
COc1ccc(N2CCN(c3cc4c(cc3F)c(=O)c(C(=O)N/N=C\c3cccc([N+](=O)[O-])c3)cn4C3CC3)CC2)cc1,1000,1000,500,500,1000,1000,1000
CC1(C)S[C@@H]2[C@H](NC(=O)[C@H](N)c3ccccc3)C(=O)N2[C@H]1C(=O)O [AMPICILLIN],250,100,100,100,,,
O=C(N/N=C\c1cccc([N+](=O)[O-])c1)c1cn(C2CC2)c2cc(Cl)c(F)cc2c1=O,1000,200,1000,200,1000,1000,> 1000
COc1ccc(N2CCN(c3cc4c(cc3F)c(=O)c(C(=O)N/N=C\c3ccccc3)cn4C3CC3)CC2)cc1,1000,500,500,500,500,500,500
COc1ccc(N2CCN(c3cc4c(cc3F)c(=O)c(C(=O)N/N=C\c3ccccc3O)cn4C3CC3)CC2)cc1,500,500,500,500,500,500,> 1000
GENTAMICIN,0.25,0.05,0.5,1,,,
COc1ccc(N2CCN(c3cc4c(cc3F)c(=O)c(C(=O)NN3C(=O)CSC3c3ccccc3O)cn4C3CC3)CC2)cc1 (configuration not stated),500,500,500,1000,1000,500,1000
COc1ccc(N2CCN(c3cc4c(cc3F)c(=O)c(C(=O)NN3C(=O)CSC3c3ccc(Cl)cc3)cn4C3CC3)CC2)cc1 (configuration not stated),100,500,1000,500,500,1000,> 1000
NYSTATIN,,,,,100,100,100
O=C(N/N=C\c1ccc(O)cc1)c1cn(C2CC2)c2cc(Cl)c(F)cc2c1=O,500,500,500,500,500,500,500
O=C(N/N=C\c1ccccc1[N+](=O)[O-])c1cn(C2CC2)c2cc(Cl)c(F)cc2c1=O,100,500,200,200,1000,500,> 1000
COc1ccc(N2CCN(c3cc4c(cc3F)c(=O)c(C(=O)NN3C(=O)CSC3c3ccc(O)c(OC)c3)cn4C3CC3)CC2)cc1 (configuration not stated),1000,1000,1000,1000,> 1000,500,1000
COc1ccc(N2CCN(c3cc4c(cc3F)c(=O)c(C(=O)N/N=C\c3ccccc3Cl)cn4C3CC3)CC2)cc1,500,100,100,100,> 1000,500,> 1000
O=C(N/N=C\c1ccccc1O)c1cn(C2CC2)c2cc(Cl)c(F)cc2c1=O,500,500,1000,500,500,500,500
COc1ccc(N2CCN(c3cc4c(cc3F)c(=O)c(C(=O)NN3C(=O)CSC3c3ccccc3[N+](=O)[O-])cn4C3CC3)CC2)cc1 (configuration not stated),200,500,500,100,1000,1000,1000
COc1ccc(C2SCC(=O)N2NC(=O)c2cn(C3CC3)c3cc(N4CCN(c5ccc(OC)cc5)CC4)c(F)cc3c2=O)cc1 (configuration not stated),1000,500,1000,500,500,500,> 1000
